Laboratory results taken from ChEMBL document CHEMBL5230103, “Hydroxamic acid hybrids as the potential anticancer agents: An Overview” (Eur J Med Chem, 2020).
pIC50: −log10 of the molar value.

Assays:
Ramos = assay: Cytotoxicity against human Ramos cells assessed as inhibition of cell growth by SRB assay; format: functional, cell-based
PC-3 = assay: Cytotoxicity against human PC-3 cells assessed as inhibition of cell growth by SRB assay; format: functional, cell-based
[1] = Oral bioavailability in BALB/c mouse at 200 mg/kg; format: ADME, organism-based; details: in vivo
Histone deacetylase = assay: Inhibition of HDAC (unknown origin); format: protein assay, Homo sapiens
Raji = assay: Cytotoxicity against human Raji cells assessed as inhibition of cell growth by SRB assay; format: functional, cell-based
SNU-387 = assay: Cytotoxicity against human SNU-387 cells assessed as inhibition of cell growth by SRB assay; format: functional, cell-based
K562 = assay: Cytotoxicity against human K562 cells assessed as inhibition of cell growth by SRB assay; format: functional, cell-based
SNU-398 = assay: Cytotoxicity against human SNU-398 cells assessed as inhibition of cell growth by SRB assay; format: functional, cell-based
[2] = Toxicity in BALB/c mouse assessed as maximum tolerated dose; details: in vivo
Huh-7 = assay: Cytotoxicity against human Huh-7 cells assessed as inhibition of cell growth by SRB assay; format: functional, cell-based
HepG2 = assay: Cytotoxicity against human HepG2 cells assessed as inhibition of cell growth by SRB assay; format: functional, cell-based
SK-HEP1 = assay: Cytotoxicity against human SK-HEP1 cells assessed as inhibition of cell growth by SRB assay; format: functional, cell-based
MCF7 = assay: Cytotoxicity against human MCF7 cells assessed as inhibition of cell growth by SRB assay; format: functional, cell-based
MV4-11 = assay: Cytotoxicity against human MV4-11 cells assessed as inhibition of cell growth by SRB assay; format: functional, cell-based
MOLT-4 = assay: Cytotoxicity against human MOLT-4 cells assessed as inhibition of cell growth by SRB assay; format: functional, cell-based
SU-DHL-6 = assay: Cytotoxicity against human SU-DHL-6 cells assessed as inhibition of cell growth by SRB assay; format: functional, cell-based
PLC-PRF-5 = assay: Cytotoxicity against human PLC-PRF-5 cells assessed as inhibition of cell growth by SRB assay; format: functional, cell-based
U-251 = assay: Cytotoxicity against human U-251 cells assessed as inhibition of cell growth by MTT assay; format: functional, cell-based
[3] = Cytotoxicity against human U87 cells assessed as inhibition of cell growth by MTT assay; format: functional, cell-based, U-87MG ATCC; details: U-87 MG
T98G = assay: Cytotoxicity against human T98G cells assessed as inhibition of cell growth by MTT assay; format: functional, cell-based

| SMILES | pIC50 (Ramos) | pIC50 (PC-3) | bioavailability [1] [%] | IC50 (Histone deacetylase) [µM] | pIC50 (Raji) | pIC50 (SNU-387) | pIC50 (K562) | pIC50 (SNU-398) | MTD [2] [mg/kg] | pIC50 (Huh-7) | pIC50 (HepG2) | pIC50 (SK-HEP1) | pIC50 (MCF7) | pIC50 (MV4-11) | pIC50 (MOLT-4) | pIC50 (SU-DHL-6) | pIC50 (PLC-PRF-5) | pIC50 (U-251) | pIC50 [3] | pIC50 (T98G) |
| --- | --- | --- | --- | --- | --- | --- | --- | --- | --- | --- | --- | --- | --- | --- | --- | --- | --- | --- | --- | --- |
| CC(C)n1cnc2c(-c3cccc(OCCCCC(=O)NO)c3)nc(N3CCOCC3)nc21 | 6.80 | 6.80 | 62 | 0.035 | 6.80 | 6.80 | 6.80 | 6.80 | 200 | 6.80 | 6.80 | 6.80 | 6.80 | 6.80 | 6.80 | 6.80 | 6.80 |  |  |  |
| O=C(CCCCCNC(=O)c1cc(O)c2c(c1)C(=O)c1cccc(O)c1C2=O)NO |  |  |  |  |  |  |  |  |  |  |  |  |  |  |  |  |  | 5.26 | 5.26 | 5.26 |
